ChEMBL document CHEMBL5214881, “Squaric acid analogues in medicinal chemistry” (Eur J Med Chem, 2021)
Converted amounts (≈) assume the structure as drawn.

What was measured:
Urinary bladder = assay: Inhibition of KCL-induced contraction in rat urinary bladder; format: functional, tissue-based; details: Urinary bladder smooth muscle
[1] = target: T1, C-X-C chemokine receptor type 1 (Homo sapiens, UniProt P25024); assay: Binding affinity to human CXCR1 assessed as dissociation constant incubated for 6 to 24 hrs by radioligand binding assay
T1 sequence (P25024 whole entry): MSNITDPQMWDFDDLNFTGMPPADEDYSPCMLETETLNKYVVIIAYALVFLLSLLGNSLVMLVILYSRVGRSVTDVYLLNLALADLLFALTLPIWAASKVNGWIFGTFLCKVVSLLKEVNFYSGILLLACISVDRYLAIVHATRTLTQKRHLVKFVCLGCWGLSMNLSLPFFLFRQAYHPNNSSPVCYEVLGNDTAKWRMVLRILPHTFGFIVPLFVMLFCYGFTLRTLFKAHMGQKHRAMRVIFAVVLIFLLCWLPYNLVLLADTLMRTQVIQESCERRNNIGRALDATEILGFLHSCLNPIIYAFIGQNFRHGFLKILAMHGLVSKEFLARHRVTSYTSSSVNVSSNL

[2] = target: T2, C-X-C chemokine receptor type 2 (Homo sapiens, UniProt P25025); assay: Binding affinity to human CXCR2 assessed as dissociation constant incubated for 6 to 24 hrs by radioligand binding assay
T2 sequence (P25025 whole entry): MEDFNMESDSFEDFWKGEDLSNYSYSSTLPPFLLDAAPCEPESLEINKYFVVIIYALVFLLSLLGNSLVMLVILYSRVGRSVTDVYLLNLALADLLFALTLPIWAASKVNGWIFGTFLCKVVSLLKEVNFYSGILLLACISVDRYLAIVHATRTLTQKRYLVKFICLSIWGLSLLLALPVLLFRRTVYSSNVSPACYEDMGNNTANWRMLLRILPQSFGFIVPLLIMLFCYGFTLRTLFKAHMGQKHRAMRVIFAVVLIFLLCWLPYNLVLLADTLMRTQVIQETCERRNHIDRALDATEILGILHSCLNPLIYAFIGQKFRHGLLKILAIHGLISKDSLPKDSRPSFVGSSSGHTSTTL

[3] = target: T1, C-X-C chemokine receptor type 1; assay: Inhibition of human CXCR1
Leishmania braziliensis = assay: Antileishmanial activity against promastigote stage of Leishmania braziliensis MHOM/BR/1975/M2904 incubated for 72 hrs by Neubauer haemocytometric chamber analysis; format: functional, organism-based; details: MHOM/BR/1975/M2904, 72 h
Leishmania infantum = assay: Antileishmanial activity against promastigote stage of Leishmania infantum MCAN/ES/2001/UCM-10 incubated for 72 hrs by Neubauer haemocytometric chamber analysis; format: functional, organism-based; details: MCAN/ES/2001/UCM-10, 72 h
Leishmania donovani = assay: Antileishmanial activity against promastigote stage of Leishmania donovani MHOM/PE/84/LC26 incubated for 72 hrs by Neubauer haemocytometric chamber analysis; format: functional, organism-based; details: MHOM/PE/84/LC26, 72 h
HeLa = assay: Cytotoxicity against human HeLa cells assessed as reduction in cell viability incubated for 24 hrs by MTT assay; format: functional, cell-based
Cholinesterase = Cholinesterase (Homo sapiens, UniProt P06276); assay: Inhibition of human BchE by spectrophotometric analysis
Chain of Cholinesterase (P06276 whole entry): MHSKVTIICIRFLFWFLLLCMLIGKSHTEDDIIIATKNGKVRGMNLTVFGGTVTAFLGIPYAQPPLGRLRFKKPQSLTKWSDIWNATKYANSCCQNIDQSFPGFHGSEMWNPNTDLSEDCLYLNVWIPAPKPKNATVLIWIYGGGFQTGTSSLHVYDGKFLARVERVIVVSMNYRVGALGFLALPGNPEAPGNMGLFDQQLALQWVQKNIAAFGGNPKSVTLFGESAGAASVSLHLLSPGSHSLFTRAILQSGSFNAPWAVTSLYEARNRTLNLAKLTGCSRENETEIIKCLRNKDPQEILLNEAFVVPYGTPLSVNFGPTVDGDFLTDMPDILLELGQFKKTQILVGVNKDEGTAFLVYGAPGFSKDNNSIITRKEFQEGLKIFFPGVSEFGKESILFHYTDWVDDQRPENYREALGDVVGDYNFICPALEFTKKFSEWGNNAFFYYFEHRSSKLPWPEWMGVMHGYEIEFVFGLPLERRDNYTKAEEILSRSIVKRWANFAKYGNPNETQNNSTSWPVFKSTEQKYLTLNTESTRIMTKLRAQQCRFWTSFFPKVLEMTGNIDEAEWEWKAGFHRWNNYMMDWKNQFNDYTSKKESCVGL

Acetylcholinesterase = Acetylcholinesterase (Homo sapiens, UniProt P22303); assay: Inhibition of human AchE by spectrophotometric analysis
Chain of Acetylcholinesterase (P22303 whole entry): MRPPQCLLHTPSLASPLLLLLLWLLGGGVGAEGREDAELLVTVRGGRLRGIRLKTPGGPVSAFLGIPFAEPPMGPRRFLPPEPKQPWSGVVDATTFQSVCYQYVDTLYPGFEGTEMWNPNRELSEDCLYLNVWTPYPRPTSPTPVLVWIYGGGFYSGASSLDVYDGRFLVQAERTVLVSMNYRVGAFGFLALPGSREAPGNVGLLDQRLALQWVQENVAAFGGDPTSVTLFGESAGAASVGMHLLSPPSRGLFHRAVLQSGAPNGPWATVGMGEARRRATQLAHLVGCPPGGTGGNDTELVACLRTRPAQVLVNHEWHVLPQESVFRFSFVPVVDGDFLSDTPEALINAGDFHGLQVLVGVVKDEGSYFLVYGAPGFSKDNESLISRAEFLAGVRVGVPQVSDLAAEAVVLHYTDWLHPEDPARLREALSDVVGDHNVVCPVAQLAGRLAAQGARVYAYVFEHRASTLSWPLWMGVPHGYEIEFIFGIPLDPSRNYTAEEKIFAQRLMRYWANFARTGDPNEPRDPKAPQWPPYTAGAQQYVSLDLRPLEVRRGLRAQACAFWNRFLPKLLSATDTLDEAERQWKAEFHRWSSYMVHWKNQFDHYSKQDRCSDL

[4] = Inhibition of Yersinia pestis PTP
[5] = target: T3, Type-2 angiotensin II receptor (Homo sapiens, UniProt P50052); assay: Inhibition of Angiotensin 2 binding to Angiotensin 2 receptor (unknown origin)
T3 sequence (P50052 whole entry): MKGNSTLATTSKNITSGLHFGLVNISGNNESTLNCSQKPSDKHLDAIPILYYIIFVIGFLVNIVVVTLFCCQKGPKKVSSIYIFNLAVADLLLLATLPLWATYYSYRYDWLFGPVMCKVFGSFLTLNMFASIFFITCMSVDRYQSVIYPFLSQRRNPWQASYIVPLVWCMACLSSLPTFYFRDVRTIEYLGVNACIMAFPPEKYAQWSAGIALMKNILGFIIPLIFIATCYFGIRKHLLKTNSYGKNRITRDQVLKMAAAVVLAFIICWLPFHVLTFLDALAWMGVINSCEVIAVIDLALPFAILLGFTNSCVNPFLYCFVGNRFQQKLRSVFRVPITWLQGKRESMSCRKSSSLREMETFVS

Helicobacter pylori = assay: Antibacterial activity against Helicobacter pylori assessed as bacterial growth inhibition; format: functional
Interstitial collagenase = target: T4, Interstitial collagenase (Homo sapiens, UniProt P03956); assay: Inhibition of MMP-1 (unknown origin) using DnpPro-Cha-Gly-Cys(Me)-His-Ala-Lys(Nma)-NH2 as substrate by fluorescence spectroscopy
T4 sequence (P03956 whole entry): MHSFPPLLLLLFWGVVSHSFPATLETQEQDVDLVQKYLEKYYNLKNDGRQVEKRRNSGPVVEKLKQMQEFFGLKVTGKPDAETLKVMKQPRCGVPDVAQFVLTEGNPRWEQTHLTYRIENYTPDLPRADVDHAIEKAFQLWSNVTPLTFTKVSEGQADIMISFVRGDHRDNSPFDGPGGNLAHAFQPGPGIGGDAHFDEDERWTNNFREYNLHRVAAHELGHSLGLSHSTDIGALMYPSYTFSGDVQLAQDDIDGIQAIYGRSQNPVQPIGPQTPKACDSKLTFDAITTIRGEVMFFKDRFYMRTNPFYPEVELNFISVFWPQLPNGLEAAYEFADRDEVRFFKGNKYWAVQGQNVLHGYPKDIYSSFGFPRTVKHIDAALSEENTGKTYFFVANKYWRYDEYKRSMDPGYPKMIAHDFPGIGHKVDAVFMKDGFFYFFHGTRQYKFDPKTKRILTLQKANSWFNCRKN

[6] = Dissociation constant, pKa of the compound; format: physicochemical
[7] = target: Glutamate [NMDA] receptor; assay: Binding affinity to NMDA receptor (unknown origin); format: protein-complex assay, Homo sapiens
[8] = Toxicity in Swiss albino mouse assessed as lethality pretreated for 30 mins followed by NMDA stimulation and measured after 30 mins; details: in vivo, 1 h, time 60 min
[9] = target: Glutamate [NMDA] receptor; assay: Binding affinity to TCP-stimulated NMDA (unknown origin); format: protein-complex assay, Homo sapiens

SMILES: CCc1cc(C#N)ccc1Nc1c(N[C@H](C)C(C)(C)C)c(=O)c1=O
- IC50 (Urinary bladder): 90 nM

SMILES: CC[C@@H](Nc1c(Nc2cccc(C(=O)N(C)C)c2O)c(=O)c1=O)c1ccco1
- Kd [1]: 3.9 nM
- Kd [2]: 0.049 nM

SMILES: CCC(CC)Nc1c(Nc2cccc(C(=O)N(C)C)c2O)c(=O)c1=O
- IC50 [3]: 15 nM

SMILES: O=c1c(Nc2ccccc2)c(Nc2ccc([N+](=O)[O-])cc2O)c1=O
- IC50 [3]: 36 nM

SMILES: CC[C@@H](Nc1c(Nc2cccc(C(=O)N(C)C)c2O)c(=O)c1=O)c1ccccc1
- IC50 [3]: 6.8 nM

SMILES: CCCCNc1c(N(C)CCCN(C)C)c(=O)c1=O
- IC50 (Leishmania braziliensis): 17300 nM
- IC50 (Leishmania infantum): 18000 nM

SMILES: O=c1c(NCc2ccccc2)c(NC2CCN(Cc3ccccc3)CC2)c1=O
- IC50 (Leishmania donovani): 17900 nM

SMILES: COc1c(Nc2ccc3ccccc3c2-c2c(O)ccc3ccccc23)c(=O)c1=O
- IC50 (HeLa): 46700 nM

SMILES: O=c1c(NCCCCCCCc2c3c(nc4ccccc24)CCCC3)c(NCCCCCCCc2c3c(nc4ccccc24)CCCC3)c1=O
- IC50 (Cholinesterase): 21 nM
- IC50 (Acetylcholinesterase): 13 nM

SMILES: COc1c(Nc2ccc3c4c(cccc24)-c2ccccc2-3)c(=O)c1=O
- IC50 (HeLa): 880 nM

SMILES: O=c1c(O)c(-c2ccc([N+](=O)[O-])cc2)c1=O
- IC50 [4]: 120000 nM

SMILES: O=c1c(O)c(-c2ccccc2-c2ccc(CNc3cc(C(F)(F)F)cc4c3CCCC4)cc2)c1=O
- IC50 [5]: 25 nM

SMILES: O=c1c(NC/C=C\COc2cc(CN3CCCCC3)cs2)c(NCCF)c1=O
- MIC (Helicobacter pylori): 1.56 µg/mL (≈ 3.83 µM)

SMILES: CC[C@H](C)[C@H](Nc1c(N(C)O)c(=S)c1=O)C(=O)N[C@@H](Cc1ccccc1)C(=O)NC
- IC50 (Interstitial collagenase): 15000 nM

SMILES: O=c1c(NCCCCc2c3c(nc4cc(Cl)ccc24)CCCC3)c(NCCCCc2c3c(nc4ccc(Cl)cc24)CCCC3)c1=O
- IC50 (Cholinesterase): 110 nM
- IC50 (Acetylcholinesterase): 2 nM

SMILES: Nc1nc2c(ncn2[C@@H]2O[C@@H]3CNc4c(c(=O)c4=O)N[C@H]3[C@H]2O)c(=O)[nH]1
- pKa [6]: 2.3

SMILES: CCCCCCCCCCCCCCC(C)Nc1c(NCC[N+](C)(C)C)c(=O)c1=O (configuration not stated)
- IC50 (Leishmania infantum): 16300 nM

SMILES: O=c1c(O)c(-c2ccc3ccccc3c2)c1=O
- IC50 [4]: 40000 nM

SMILES: Nc1c(NCCP(=O)(O)O)c(=O)c1=O
- IC50 [7]: 470 nM
- ED50 [8]: 29 mg/kg

SMILES: O=c1c2c(c1=O)N(CCP(=O)(O)O)CCCN2 [PERZINFOTEL]
- IC50 [9]: 7600 nM
- IC50 [7]: 30 nM
- ED50 [8]: 2.1 mg/kg
